In patent US7189751B2, “Oxa(thia)zolidine compounds, process for preparation thereof and anti-inflammatory agents” (Nippon Soda Co., Ltd., priority 2001, dated 2007):

What was measured:
[1] = system: Mouse Delayed Contact Dermatitis Induced by Picryl Chloride; experiment: Mouse delayed contact dermatitis induced by picryl chloride; format: in vivo
Experimental: Pharmacological Test Example 3 Mouse Delayed Contact Dermatitis Induced by Picryl Chloride
This pharmacological test was carried out referring to the method of Asherson, G. L. & Ptak, W. (Immunology, 15: 405–416 (1968).) and the method of Jun Hiroi (Folia Pharmacology of Japan, 86: 233–239 (1985).). More specifically, hairs on the abdomen of an ICR-strain male mouse were removed using an electric clipper and an electric shaver. Then, 0.1 mL of 7% ether solution of picryl chloride (Tokyo Kasei Kogyo Co., Ltd., C 0307) was applied onto the abdomen for sensitization. On the sixth day after the sensitization, 20 μL/ear of 1% olive oil solution of picryl chloride was topically applied to the anterior and posterior surfaces of both ears of the mouse to induce contact dermatitis (first induction). Before and 24 hours after the induction, the thicknesses of the particular parts on the both ears were measured three times, respectively, using a digimatic micrometer (Mitsutoyo Co., Ltd.) to work out the average values. Ear edema of the both ears was respectively determined by subtracting the average thickness of the each ear before the induction from that on 24 hours after the induction, so that a grouping was carried out to separate the appropriate individuals. On the fourth day after the first induction, the hairs on the abdomen were removed again, and 0.1 mL of 7% ethanol solution of picryl chloride was applied thereto for additional sensitization. The contact dermatitis for evaluating activity was induced by re-applying 20 μL/ear of 1% olive oil solution of picryl chloride to the anterior and posterior surfaces of both ears (second induction) on the seventh day after the additional sensitization (on the […] after the first sensitization). The activity of each compound of the present invention was evaluated as the inhibition on the contact dermatitis as compared with that of the vehicle applied control. That is, the thicknesses of the particular portions of the both ears were measured respectively three times with a digimatic micrometer to work out the mean values before, 24 hours and 48 hours after the second induction. Ear swelling was determined by subtracting the ear thickness before the second induction from that on 24 hours and 48 hours after the second induction, respectively. Topical application activity was evaluated by applying 25 μL of the acetone solution of the compound of the present invention similarly to the anterior and posterior surfaces of the right ear one hour before and 16 hours after the second induction. As the positive control, 0.02 mg/20 μL of acetone solution of Dexamethasone (hereinafter referred to as DEX, Wako Pure Chemical Industries Ltd., 047-18863) was applied similarly as for the compound of the present invention. With respect to the inhibitory activity in topical application tests, the topical activity was determined by the inhibition of the applied right ear edema, and the translocation and distribution property was determined by the activity onto the swelling of non-treated left ear. Oral administration activity was evaluated by administrating 0.5% methyl cellulose suspension of the compound of the present invention forcibly and perorally to the mouse an hour before and 16 hours after the second induction. As the positive control, 20 mg/kg of Prednisolone (Sigma Chemical Co., P 6004) suspension was administrated similarly as for the compounds of the present invention. […] As the examples, the body weight changes in the mice for 48 hours after the second induction when they were administrated with the compounds shown in Table 5 are shown in Table 6.

[2] = system: Mouse Delayed Contact Dermatitis Induced by Picryl Chloride; experiment: as above; format: in vivo; remark: listed apart in the source

Q: Which results are given for C[C@@H]1C[C@H]2[C@@H]3CCC4=CC(=O)C=C[C@]4(C)[C@@]3(F)[C@@H](O)C[C@]2(C)[C@@]1(O)C(=O)CO [DEX, Dexamethasone]?
A: Change in body weight 48 hours after induction (Mean ± S.E.) ([1]; 0.02 mg/ear × 2, vehicle control −0.45 ± 0.20): -1.42 ± 0.20 g; Change in body weight 48 hours after induction (Mean ± S.E.) (%) ([1]; 0.02 mg/ear × 2, vehicle control −1.29 ± 0.59): −4.30 ± 0.59%; intoxicated symptoms ([1]; mice of the picryl chloride dermatitis test): showed intoxicated symptoms; body weight 48 hours after the second induction ([1]; mice of the picryl chloride dermatitis test, 48 hours after the second induction): reduced significantly; Ear swelling after 24 hours, Right (Applied) (Mean ± S.E., mm) ([2]; topical 0.02 mg/25 μL/ear × 2, vehicle control 0.299 ± 0.006): 0.057 ± 0.009 mm; Ear swelling after 24 hours, Left (Not applied) (Mean ± S.E., mm) ([2]; topical 0.02 mg/25 μL/ear × 2 on right ear, vehicle control 0.284 ± 0.008): −0.005 ± 0.033 mm
